In one assay the test system is Mucor circinelloides. As to conditions: fungus Mucor circinelloides; cited from earlier work.
For a further assay, the system named is ATP:citrate lyase. The conditions noted are these: ATP:citrate lyase from Mucor circinelloides; cited from earlier work.
A further assay relates to malate dehydrogenase. The conditions noted are these: malate dehydrogenase from Mucor circinelloides; cited from earlier work.
Assay [1] concerns the target T1, human cytosol malate enzyme (Homo sapiens, UniProt P48163).
T1 sequence (P48163 1-572): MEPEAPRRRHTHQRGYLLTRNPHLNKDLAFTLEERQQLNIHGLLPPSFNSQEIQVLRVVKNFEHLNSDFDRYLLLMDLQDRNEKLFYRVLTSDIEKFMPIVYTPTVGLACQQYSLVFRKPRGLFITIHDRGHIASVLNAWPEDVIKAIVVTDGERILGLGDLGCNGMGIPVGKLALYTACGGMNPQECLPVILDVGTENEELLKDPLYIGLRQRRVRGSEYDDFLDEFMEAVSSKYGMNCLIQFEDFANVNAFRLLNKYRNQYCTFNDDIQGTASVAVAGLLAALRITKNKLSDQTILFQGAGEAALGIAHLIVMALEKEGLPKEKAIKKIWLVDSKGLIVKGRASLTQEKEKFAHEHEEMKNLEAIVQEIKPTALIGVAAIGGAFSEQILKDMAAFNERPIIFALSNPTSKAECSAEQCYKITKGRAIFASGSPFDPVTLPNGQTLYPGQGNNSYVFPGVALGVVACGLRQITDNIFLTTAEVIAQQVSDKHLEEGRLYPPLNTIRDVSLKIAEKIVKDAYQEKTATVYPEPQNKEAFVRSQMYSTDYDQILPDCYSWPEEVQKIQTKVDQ
The conditions noted are these: cited from earlier work.

Another assay deals with malate enzyme. The conditions noted are these: malate enzyme from Mucor circinelloides; cited from earlier work.
For assay [2], the system named is mice (type CD-1M (ICR) BR). Put plainly: Feeding experiment in mice: whole body crude protein, crude fat, P/F quotient, feed intake, weight gain. It is filed as in vivo. As to conditions: 21 days; for Body fat / Body protein / P/F quotient: mice. The procedure:
1. Determination of Whole Body Crude Protein • 1) Method for determining the content of crude protein in mice from the nitrogen content, modified according to Kjeldahl (Kjeldahl, J.: Z. anal. Chem. 22, 366-382. 1883). • 2) Principle • The experimental animals were slaughtered and after removing the gastrointestinal tract, the weight of the animals was determined by weighing. The experimental animals were then shock-frozen in liquid nitrogen and homogenized. The resultant samples were subjected to wet digestion. The acidic digest was made alkaline with sodium hydroxide solution. The ammonia released was removed by distillation and collected in a defined amount of sulfuric acid, the excess of which was titrated with sodium hydroxide solution. • 3) Reagents • 3.1) Potassium sulfate, analytical grade • 3.2) Catalyst: copper(II) oxide, CuO, analytical grade, or crystalline copper sulfate, CuSO4.5H2O, analytical grade, or mercury, or mercury oxide, HgO, analytical grade. • 3.3) Sulfuric acid; analytical grade, D 1.84 • 3.4) Pumice stone, granulated, washed with hydrochloric acid and ignited • 3.5) Zinc, analytical grade, granulated • 3.6) Sulfuric acid, 0.1 N; • 3.7) Sulfuric acid, 0.5 N • 3.8) Methyl red indicator: 300 mg of methyl red are dissolved in 100 ml of ethanol, from 94 to 96% strength (VN). • 3.9) Sodium hydroxide solution, analytical grade, 40% strength (WN) • 3.10) Sodium sulfide solution, analytical grade, saturated • 3.11) Sodium thiosulfate solution, 8% strength (WN), Na2S2O3.5H2O, analytical grade • 3.12) Sodium hydroxide solution, 0.1 N; • 3.13) Sodium hydroxide solution, 0.25 N • 4) Apparatus • Digestion apparatus and distillation apparatus according to Kjeldahl (see above); • 5) Digestion • 1 g of the sample was weighed out accurately to 1 mg and placed in the flask of the digestion apparatus. 10 g of potassium sulfate […], a suitable amount of the catalyst (3.2) (from 0.3 to 0.4 g of copper oxide or from 0.9 to 1.2 g of copper sulfate or one drop of mercury or from 0.6 to 0.7 g of mercury oxide), 25 ml of sulfuric acid (3.3) and a few grains of pumice (3.4) were added and the flask contents were mixed. The flask was first heated moderately, then, with shaking from time to time, heated up to carbonization of the substance and disappearance of the foam, and finally intensively up to the uniform boiling of the liquid. Superheating of the flask walls and deposition of organic parts onto the flask walls was avoided. As soon as the solution was clear and colorless (light green when a copper-containing catalyst is used), this was kept boiling for a further 1 hour; thereafter it was allowed to cool. • 6) Distillation • With continuous swirling, from 250 to 356 ml of water were added with care, in which case the sulfates should dissolve completely. The mixture was allowed to cool; then some zinc granules (3.5) were added. Between 10 ml and 25 ml of sulfuric acid (3.6) or (3.7), depending on the expected nitrogen content, and a few drops of methyl red indicator (3.8) were added to the distillation apparatus collection flask. The flask was connected to the condenser of the distillation apparatus and its outermost end was lowered at least 1 cm deep into the liquid of the collection flask. 100 ml of sodium hydroxide solution (3.9) were slowly charged via the stopcock funnel into the distillation flask. When a mercury catalyst is used, in addition, 10 ml of sodium sulfide solution (3.10) or 25 ml of sodium thiosulfate solution (3.11) were added to the distillation flask. The flask is heated in such a manner that, in 30 min, about 150 ml of the liquid had distilled off. After the expiry of this time, the neutral reaction of the overhead distillate was controlled using litmus paper. If the reaction was alkaline, the distillation was continued. […] During the distillation operation, the contents of the collection flask were swirled from time to time and its color was observed. […]

The target of assay [3] is human mitochondrial malate enzyme (Homo sapiens, UniProt P23368). As to conditions: cited from earlier work.
Sequence of human mitochondrial malate enzyme (P23368 19-584): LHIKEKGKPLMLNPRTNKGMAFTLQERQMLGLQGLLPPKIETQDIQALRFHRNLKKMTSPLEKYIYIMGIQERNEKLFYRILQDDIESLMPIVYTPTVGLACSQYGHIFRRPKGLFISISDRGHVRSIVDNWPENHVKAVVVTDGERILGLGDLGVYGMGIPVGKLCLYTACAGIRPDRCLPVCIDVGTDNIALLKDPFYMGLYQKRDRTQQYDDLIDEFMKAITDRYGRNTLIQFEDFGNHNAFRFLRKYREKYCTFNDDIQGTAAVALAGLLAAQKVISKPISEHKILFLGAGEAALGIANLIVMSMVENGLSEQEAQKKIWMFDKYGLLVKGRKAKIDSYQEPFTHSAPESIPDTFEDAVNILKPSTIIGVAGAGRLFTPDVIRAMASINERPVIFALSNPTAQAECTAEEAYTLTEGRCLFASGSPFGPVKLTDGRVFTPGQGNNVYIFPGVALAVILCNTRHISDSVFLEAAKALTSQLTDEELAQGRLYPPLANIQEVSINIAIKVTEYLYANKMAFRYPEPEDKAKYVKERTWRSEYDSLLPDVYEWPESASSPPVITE
Assay [4] relates to conversion of carbohydrates to fatty acids. The conditions noted are these: rats on a low-fat, carbohydrate-rich diet; cited from earlier work.
The mark [5] stands for this setting: animals fed with tartronic acid (0.25% and 0.75% of feed) vs control.

`O=C(O)C(O)C(=O)O` [Tartronic acid, tartronic acid]: the “in vivo inhibitory activity, effect on lipid metabolism” value in the assay on Mucor circinelloides was “not sufficient to have a detectable effect on lipid metabolism”. Further, the “inhibitory activity on enzyme” value (in the assay on ATP:citrate lyase; in the assay with malate dehydrogenase; in assay [1]; with malate enzyme; in assay [3]) was “direct inhibitory activity” throughout. Further, the Body fat is 20.25 % by weight of body weight in assay [2] (0.25% by weight of the feed) and 20.65 % by weight of body weight in assay [2] (0.75% by weight of the feed). Further, the values for the Body protein in assay [2] (0.25% by weight of the feed) and in assay [2] (0.75% by weight of the feed) were 65.93 % by weight of body weight and 66.04 % by weight of body weight, respectively. Also, the figures for the P/F quotient in assay [2] (0.25% by weight of the feed) and in assay [2] (0.75% by weight of the feed) were 3.53 and 3.28, respectively. For the same molecule, the “P/F quotient, change” value in assay [2] (setting [5]) is recorded as “increase in the P/F quotient”. In addition, in assay [2] (setting [5]), the “PPTW (percentage protein of total weight), change” value is “increase in the PPTW”. The “effect on conversion of carbohydrates to fatty acids” value in assay [4] was “inhibits the conversion of carbohydrates to fatty acids”.

Source of the values: patent publication US20080210174A1, “Increasing the Protein Concentration of Animal Organisms” (BASF AKTIENGESELLSCHAFT, priority 2004, published 2008).
